# Data published in patent US12173039B1, “TPL2 inhibiting agents, uses thereof, and detection of TPL2” (Washington University, priority 2021, dated 2024).
# “Also recorded” adds a separate entry of the source.
# How the values were obtained:
# [1] = patients with refractory hematologic malignancies; cited from earlier work
# [2] = test system: p-MEK, p-ERK, and p-RSK; assay: Immunoblots of MAPK pathway markers in human cell lines; type: cell-based; conditions: for p-MEK and p-ERK levels: serum-free
# Method: (§1) Standard immunoblotting procedure was followed. Cells were washed twice with ice-cold 1×PBS and lysed with ice-cold triton-X lysis buffer (25 mM Tris, pH 7.4, 150 mM NaCl, 5 mM EDTA, 1% Triton-X) containing 1× protease (10 μg mL-1 leupeptin, 700 ng mL-1 pepstatin, 170 ng mL-1 aprotinin, 1 mM PMSF) and phosphatase (10 mM NaF, 1 mM Na3VO4, 1 mM Na4P2O^7, 5 mM Na b-glycerophosphate) inhibitors. Lysates were quantified by Bradford assay (Thermo Scientific), normalized for concentration, and reduced and denatured with 6×SDS sample buffer followed by boiling for 5 minutes. 20-40 μg of protein per sample was resolved by SDS-PAGE, blotted on PVDF membrane and probed with primary antibodies (Cell Signaling Technologies: p-ERK1/2 (#4370), p-MEK1/2 (#9154), ERK1/2 (#4695), MEK1/2 (#8727), p-p105 (#4806), NFS2KB1 p105/p50 (#3035), p-IRAK4 (#11927), IRAK4 (#4363), ubiquitin (#43124), anti-HA (#3724), p-p90RSK (#11989), RSK1/2/3 (#9355), p-TPL2 (#4491), PARP (#9532), p-B-RAF S445 (#2696), BRAF (#9433S). Santa Cruz Biotechnology: GAPDH (#sc-32233), p-p65 S536 (#sc101752). Thermo Fisher Scientific: p-55 TPL2 (#PA5-36635). EMD Millipore: IRAK4 (#07-418). R&D systems: TPL2/MAP3K8 (#MAB4586). Novus Biologicals: anti-AU1 (#NB600-453). Abcam: p-p65 S276 (#ab194726)). Membranes were incubated with appropriate HRP-conjugated secondary antibodies (anti-mouse or anti-rabbit, (1:5000 dilution), Jackson Laboratory) and imaged using chemiluminescent substrate. Additional steps for immunoprecipitation include incubation of soluble fraction lysate with anti-HA magnetic beads (Thermo Scientific cat #88837) overnight at 4° C., washing, and elution using 1×SDS sample buffer and boiling as mentioned in manufacturer's protocol.
# [3] = test system: p-p105, p-p65; assay: Immunoblots of NF-κB markers in PDAC cells; type: cell-based, human
# Method: as §1
# [4] = test system: TLR9 and p-IRAK4 interaction; assay: Proximity ligation assay (PLA); type: cell-based, human; conditions: 3 PDAC lines; 10 μM, 16 hours
# Method: PLA was performed using Duolink® in situ Red Starter Kit Mouse/Rabbit (DUO92101, Sigma) per manufacturer's protocol. Briefly, cells were seeded on cover slips in 6 well plate at ˜50% confluency per well. Next day cells were treated with SN-38 (10 μM) and 16 hours later PLA was performed using p-IRAK4 (ABNOVA) and TLR9 (CST) primary antibodies. Stained cells were imaged using Nikon C2+ fluorescent microscope paired with NIS-Element software. Number of puncta per field was quantitated for six 400× fields per condition using Find Maxima tool in ImageJ software. Data was exported and graphed in GraphPad Prism v8.
# [5] = test system: HPNE-KRAS^G12D cells, HEKT/tH-KRAS^G12V cells, conventional PDAC lines, and PDCLs; assay: Anchorage independent soft agar growth assay, human KRAS-mutant lines; type: cell-based; conditions: HPNE-KRAS^G12D, HEKT/tH-KRAS^G12V, conventional PDAC lines, PDCLs
# Method: Cells were seeded at 5000-15000 cells in 0.3% noble agar-DMEM suspension per well, in triplicate, in 24 well plate. For drug treatment, compound was added to cell suspension at 1× concentration. Seeded cells were fed with fresh 0.6% agar-DMEM mix once every 7-12 days. […] After 3-6 weeks, colonies were counted under microscope and imaged. Colony count was normalized to control and graphed in GraphPad Prism v7/8.
# [6] = test system: serum-response element (SRE); assay: Serum-response element (SRE) luciferase reporter assay; type: cell-based, human; conditions: for SRE reporter activity (MAPK cascades): KRAS-mutant HPAC, MIA Paca-2, and Pa01C cells
# Method: (§2) Cells stably expressing plasmid encoding serum-response-element (SRE) or NFKB promoter driven Firefly luciferase and constitutive Renilla luciferase were seeded at equal density per well and treatment was initiated the next day for 16-24 duration. Alternatively, 293T reporter cells were transfected in duplicate or triplicate with 1 μg of appropriate plasmid DNA. Medium was replaced 16-18 hours later and at 48 hours post-transfection reporter activity was measured using Dual-Glo® Luciferase Assay System. Data was acquired using SpectraMax i3Microplate Reader and analysis was performed by calculating ratio of firefly:renilla. Values were normalized to control and graphed using GraphPad Prism v7/8 software.
# [7] = test system: NF-κB reporter activity; assay: NF-κB luciferase reporter assay; type: cell-based, human; conditions: KRAS-mutant PDAC cells (PANC-1); serial dilutions from 20 μM; 18 hours
# Method: as §2
# [8] = test system: Hs695T cells; assay: Drug response and viability assay, Hs695T; type: cell-based, human
# Method: Cells were seeded at 1500-2500 cells per well in triplicates, in 96 well format. Next day, appropriate inhibitor was added in serial dilution from 1.00×102 μM or indicated single doses. Vehicle (DMSO) was added to match volume of inhibitor used for highest concentration. After 96-120 hours, 5× AlamarBlue® reagent (resazurin sodium salt, Sigma) was added to wells and incubated for 2-4 hours. Fluorescence at 585 nm (excitation 555 nm) was measured by SpectraMax i3 Microplate Reader. Raw values were normalized to vehicle, analyzed and graphed using GraphPad Prism v7/8 software.
# [9] = test system: Hs695T cells; assay: Cell proliferation assay, Hs695T; type: cell-based, human
# Method: (§3) Cells were seeded in triplicate or quadruplicate at indicated density per well. When applicable, appropriate drug compound was added to cells the next day. Viable cells were counted using trypan blue dye exclusion and BioRad TC20 Automated Cell Counter at each time point.
# [10] = test system: IGROV1 cells; assay: Cell proliferation assay, IGROV1; type: cell-based, human
# Method: as §3
# [11] = test system: KRAS mutant cell lines; assay: Clonogenic 2D assay, KRAS-mutant and PDAC lines; type: cell-based, human; conditions: HPNE-KRAS^G12D, HEKT/tH-KRAS^G12V, conventional PDAC lines, PDCLs
# Method: (§4) Cells were seeded at 500-1000 cells per well (6 well plate format) or 200-1000 cells per well (12 well format) in 10% serum media. For drug treatment, compound was added at time of seeding at indicated concentration. Media was replenished as needed over course of incubation. After 3-5 weeks, colonies were fixed with 4% formaldehyde, stained with 0.5% crystal violet and scanned using document scanner. Images were quantified using particle analyzer on ImageJ software and values were normalized to vehicle.
# [12] = test system: IGROV1 cells; assay: Clonogenic 2D assay, IGROV1; type: cell-based, human
# Method: as §4
# [13] = test system: orthotopic KI tumors; assay: Orthotopic implantation of murine KI PDAC cells; type: in vivo; conditions: KI tumors in syngeneic FVB/NJ mice; 30 mg/kg, 14 days
# Method: For subcutaneous xenograft, approximately 5 million cells per flank were implanted into 6-week-old athymic nude mice (NU/J, Jackson Laboratory). When applicable, treatment with drug compound was initiated when tumors were palpable. FIRINOX (25 mg/kg 5-FU, 17.5 mg/kg irinotecan, and 3.35 mg/kg oxaliplatin) was administered via intraperitoneal injection weekly in 50 μL PBS. TPL2i was administered by intraperitoneal injection at 10 mg/kg in 40 μL DMSO, 5 days per week. Mice in the control group were treated with vehicle. Tumor volume was calculated as width^2×(length×0.5). Tumors were measured and mice were weighed 3 days per week. For orthotopic implantation, murine KI PDAC cells were injected into the pancreas of 7-week-old female FVB/NJ mice (Jackson Laboratory), as previously described (see e.g., Kim et al. (2009) Nat Protoc. 4 (11): 1670-1680). Six days after implantation, treatment with vehicle, FIRINOX (same dose as above), or TPL2i (30 mg/kg) was initiated for 14 days, at which time all mice were sacrificed. In vivo tumor progression was monitored using ultrasound (VScan, GE Healthcare) with final day representative tumor images shown.
# [14] = test system: poly (ADP-ribose) polymerase (PARP); assay: Immunoblot of PARP cleavage; type: cell-based, human; conditions: PDAC lines; cotreatment with SN-38, 16 hours
# Method: as §1, with “Membranes were incubated with appropriate HRP-conjugated secondary antibodies (anti-mouse or anti-rabbit, (1:5000 dilution), Jackson Laboratory) and imaged using chemiluminescent substrate. Additional steps for immunoprecipitation include incubation of soluble fraction lysate with anti-HA magnetic beads (Thermo Scientific cat #88837) overnight at 4° C., washing, and elution using 1×SDS sample buffer and boiling as mentioned in manufacturer's protocol.” left out
# [15] = test system: LPS-induced TNF-α production; conditions: human monocytes; cited from earlier work
# [16] = test system: IL1B; assay: qRT-PCR of IL1B in HEK T/tH KRAS^G12V cells; type: cell-based, human; conditions: 16 hours
# Method: Total RNA was isolated using RNAzol RT (Sigma), cDNA was generated using High Capacity cDNA reverse transcription kit (Thermo Fisher Scientific, 4368814) and qPCR was performed using SYBR-Green reagent (Applied Biosystems, cat #4309155). All experiments were performed in biological duplicates or triplicates (n=2,3).
# [17] = HPAC cells, 16 hours, 10% serum
molecule,measurement,setting,value
"Cc1cc(-c2nc(C(=O)Nc3cc4oc(N5CCOCC5)nc4nc3N3CC[C@@H](O)C3)co2)ccn1 [CA-4948, N-[5-[(3R)-3-hydroxypyrrolidin-1-yl]-2-morpholin-4-yl-[1,3]oxazolo[4,5-b]pyridin-6-yl]-2-(2-methylpyridin-4-yl)-1,3-oxazole-4-carboxamide]",patients developing grade 1-2 neutropenia,[1],23%
same,tolerability in clinical trial,[1],rather well tolerated
CCc1c2c(nc3ccc(O)cc13)-c1cc3c(c(=O)n1C2)COC(=O)[C@]3(O)CC [SN-38],"induction of p-ERK, p-MEK, p-RSK, p-TPL2 and p-IRAK4","[2]; multiple PDAC lines, 10 μM, 16 hours, compared with 4 other chemotherapeutic agents",most potent in inducing
same,NF-κB induction (p-p105),[3]; PDAC lines after chemotherapy,also induced
same,TLR9 and p-IRAK4 interaction,[4],markedly increased
"N#Cc1cnc2cnc(NCc3cccnc3)cc2c1Nc1ccc(F)c(Cl)c1 [TPL2i, 4-[(3-Chloro-4-fluorophenyl)amino]-6-[(3-pyridinylmethyl)amino]-1,7-naphthyridine-3-carbonitrile]",3-dimensional (3D) AI growth,[5],dose-dependently suppressed
same,p-MEK and p-ERK levels,"[2]; 293T cells expressing KRAS^G12V, 24 hours",dose-dependently suppressed
same,p-MEK and p-ERK,"[2]; 293T cells transfected with oncogenic BRAF^V600E, 24 hours",neither TPL2i nor IRAK4i suppressed
same,p-MEK and p-ERK / MAPK activity,"[2]; BxPc-3 PDAC line (BRAF mutation, WT KRAS)",neither TPL2i nor IRAK4i suppressed and not
same,"conditioned medium-induced p-TPL2, p-IRAK4, p-MEK, and p-ERK levels",[2]; HEK T/tH cells with CM from HEK-T/tH KRAS^G12V cells,completely blocked
same,Gemcitabine-induced p-MEK and p-ERK levels,[2]; [17],suppressible
same,p-ERK and p-MEK / MAPK activity,"[2]; Hs695T cells (BRAF^V600E, MAP3K8^E188K), 24 hours, 10% serum",significantly suppressed
same,"p-MEK, p-ERK, and p-RSK / MAPK activity","[2]; IGROV1 (MAP3K8^R442H), 1 μM, 2 hours",completely blocked; also recorded: completely abolished
same,"SN-38-induced p-MEK, p-ERK, and p-RSK","[2]; PDAC lines, cotreatment, 16 hours",significantly attenuated
same,p-BRAF,"[2]; Pa01C cells, incremental doses",without affecting
same,p-MEK and p-ERK,"[2]; Pa01C cells, incremental doses",dose-dependently blocked
same,p-MEK and p-ERK levels,"[2]; multiple KRAS-mutant PDAC lines, 36 hours",dose-dependently suppressed
same,p-p65 at S276,[3]; 3 out of 4 cell lines,potently suppressed
same,p50 processing,[3]; PDAC cell lines,did not lead to increased p50 processing
same,p-p65 at S536,[3]; PDAC cell lines,not
same,p-p105,"[3]; PDAC cell lines, TPL2 inhibition",dose-dependently suppressed
same,p-p105 in SN-38-treated cells,[3]; Pa01C cells,additionally suppressed
same,Gemcitabine-induced SRE activity,[6]; [17],suppressible
same,SRE reporter activity (MAPK cascades),[6],dose-dependently suppressed
same,NF-κB reporter activity,[7],dose-dependently suppressed
same,viability,[8],suppressed
same,in vitro proliferation,[9],significantly suppressed
same,proliferation,[10],significantly decreased
same,2D clonogenic growth,[11],dose-dependently suppressed
same,colony forming ability,[12],significantly decreased
same,growth of orthotopic tumors,[13],effective in significantly suppressing growth
same,PARP cleavage,[14],increased
same,LPS-induced TNF-α production,[15],can suppress
CC(C)(C)c1nc(-c2cccc(NS(=O)(=O)c3c(F)cccc3F)c2F)c(-c2ccnc(N)n2)s1 [dabrafenib],SRE reporter activity (MAPK cascades),[6],paradoxically hyperactivate
O=C(Nc1cc(C(F)(F)F)cc(C(F)(F)F)c1)c1cc(Cl)ccc1O [IMD-0354],SRE-driven luciferase reporter activity,[6]; HPAC cells,dose-dependent suppression
CS(=O)(=O)N1CCN(Cc2cc3nc(-c4cccc5[nH]ncc45)nc(N4CCOCC4)c3s2)CC1 [GDC-0941],IL-1B production (IL1B expression by qRT-PCR),[16],no effect
CCCS(=O)(=O)Nc1ccc(F)c(C(=O)c2c[nH]c3ncc(Cl)cc23)c1F [PLX-4720],SRE reporter activity (MAPK cascades),[6],paradoxically hyperactivate
CCCS(=O)(=O)Nc1ccc(F)c(C(=O)c2c[nH]c3ncc(-c4ccc(Cl)cc4)cc23)c1F [PLX4032],viability,[8],modest growth suppressive effect
CC(C)Nc1cc(-c2c[nH]c(C(=O)N[C@H](CO)c3cccc(Cl)c3)c2)c(Cl)cn1 [ulixertinib],IL-1B production (IL1B expression by qRT-PCR),[16],significantly abrogated
recombinant hIL-1B: recombinant human IL-1B,"p-IRAK4, p-TPL2, p-MEK, p-ERK, and p-RSK","[2]; HEK T/H, HPAC, and Pa01C cells, 100 ng/ml",upregulated
